Test results taken from paper PMC10887214 (Biomedicines, 2024).

What was measured:
[1] = molecular target: T1, GIRK1/GIRK2 channels (Mus musculus, UniProt P48542+P63250); assay: Two-electrode voltage-clamp, GIRK1/GIRK2 channels expressed in oocytes; type: cell-based; conditions: 100 μM OS, HK
T1 construct: expressed in transfected cells; host or cells: Xenopus laevis oocytes (cRNA injection)
T1 sequence (P63250 1-501): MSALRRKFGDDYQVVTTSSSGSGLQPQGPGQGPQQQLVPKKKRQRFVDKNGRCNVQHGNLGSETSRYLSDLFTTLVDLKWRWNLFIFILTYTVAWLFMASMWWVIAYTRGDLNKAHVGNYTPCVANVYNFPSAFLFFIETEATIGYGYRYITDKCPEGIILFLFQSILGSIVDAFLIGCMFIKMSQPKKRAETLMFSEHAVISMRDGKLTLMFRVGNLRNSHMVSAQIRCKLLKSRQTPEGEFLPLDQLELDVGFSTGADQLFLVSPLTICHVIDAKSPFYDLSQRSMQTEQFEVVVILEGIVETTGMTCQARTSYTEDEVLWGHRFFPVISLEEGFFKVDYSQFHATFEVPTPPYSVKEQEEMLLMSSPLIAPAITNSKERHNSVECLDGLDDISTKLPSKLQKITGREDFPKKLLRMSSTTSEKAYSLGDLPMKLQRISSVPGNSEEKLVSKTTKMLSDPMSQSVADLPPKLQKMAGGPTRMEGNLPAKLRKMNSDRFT
T1 sequence (P48542 1-425): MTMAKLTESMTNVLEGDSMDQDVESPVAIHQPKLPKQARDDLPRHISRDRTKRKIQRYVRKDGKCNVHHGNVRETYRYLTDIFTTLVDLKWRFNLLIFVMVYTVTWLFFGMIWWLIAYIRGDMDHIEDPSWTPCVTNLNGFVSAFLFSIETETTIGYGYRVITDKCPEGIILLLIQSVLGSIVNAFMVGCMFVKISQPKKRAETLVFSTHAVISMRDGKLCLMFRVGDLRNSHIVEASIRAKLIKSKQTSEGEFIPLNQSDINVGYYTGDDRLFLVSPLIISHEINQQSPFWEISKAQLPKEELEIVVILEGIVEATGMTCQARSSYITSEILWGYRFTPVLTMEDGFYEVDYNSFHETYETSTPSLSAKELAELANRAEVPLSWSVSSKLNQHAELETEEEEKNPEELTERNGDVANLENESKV
Text: In vitro transcription of cDNA clones.
Heterologous expression in Xenopus laevis oocytes.
(§1) Electrophysiological measurements.

[2] = molecular target: T2, CB2 receptor (hCB2) (Homo sapiens, UniProt P34972); assay: Two-electrode voltage-clamp, CB2-GIRK1/GIRK2-RGS4 coupling system expressed in Xenopus oocytes; type: cell-based
T2 construct: expressed in transfected cells; host or cells: Xenopus laevis oocytes (cRNA injection)

[3] = system: non-injected oocytes; assay: Two-electrode voltage-clamp on non-injected oocytes; type: cell-based, Xenopus laevis; conditions: 100 μM OS, ND96
Text: Isolation of Xenopus laevis oocytes. All procedures for the use and handling of adult female Xenopus laevis frogs (CRB Xénopes, Rennes, France) were approved by the Animal Ethics Committee of the KU Leuven (Project No. P186/2019) following regulations of the European Union (EU) concerning the welfare of laboratory animals as declared in Directive 2010/63/EU. Oocytes were isolated as described previously. Stage V–VI Xenopus laevis oocytes were isolated by partial ovariectomy. The animals were anesthetized by a 15 min submersion in 0.1% tricaine methane sulfonate (Sigma-Aldrich Chemical, St. Louis, MO, USA) solution (pH 7.0). The oocytes were enzymatically defolliculated by collagenase (3 mg/mL) (Sigma-Aldrich Chemical, St. Louis, MO, USA) digestion at 16 °C on a rocker platform in a Ca^2+-free ND96 solution. Isolated stage V–VI oocytes were then maintained in ND96 solution containing Theophylline and Gentamicin at 16 °C.
as §1

[4] = system: chimeric CB1/2 receptor; assay: Two-electrode voltage-clamp, chimeric CB1/2-GIRK1/GIRK2-RGS4 coupling system expressed in oocytes; conditions: 100 μM OS + 0.5 μM WIN55,212-2
[5] = system: C57BL/6J mice; assay: Elevated Plus Maze (EPM); type: in vivo, mouse; conditions: i.p., OS 2 mg/kg, WIN 0.5 mg/kg
Experimental: Animal housing. Forty-eight Male C57BL/6J mice were purchased from Janvier Labs (Le Genest-Saint-Isle, France) and were time-specifically housed in a 12 h light-dark cycle (lights on at 7 am), with ad libitum water and food in conditioned rooms (22 °C, humidity ~60%).
Behavior assays. All mice were subjected to a behavioral test battery that consisted of several general performance tasks of locomotor activity, exploratory and anxiety-like behavior, and learning and memory. Mice were divided into four groups: Vehicle, OS (2 mg/kg), WIN55 (0.5 mg/kg), or OS + WIN. Each group consisted of 7–14 mice that received two i.p injections before each test, with a 10 min interval between each injection. Veh + Veh were injected with PBS. Veh + WIN were injected with PBS and WIN55. Veh + OS were injected with PBS and OS. OS + WIN were injected with OS and WIN55. PBS was used as vehicle as it was used for dilution of drugs. […]
Elevated Plus Maze (EPM): EPM was used to assess the effects of OS, WIN, and OS + WIN on anxiety-like behavior. […] Time in open and closed arms was measured over 10 min. Anxiety index (AI) was calculated using the following equation: AI = 1 − [([time the animal remained in the open arms (seconds)/test duration] + [input frequency in the open arms/total number of entries])/2]. […]

[6] = molecular target: H4R (Homo sapiens, UniProt Q9H3N8)
[7] = molecular target: KV7.1 (Homo sapiens, UniProt P51787)
Sequence of KV7.1 (P51787 whole entry): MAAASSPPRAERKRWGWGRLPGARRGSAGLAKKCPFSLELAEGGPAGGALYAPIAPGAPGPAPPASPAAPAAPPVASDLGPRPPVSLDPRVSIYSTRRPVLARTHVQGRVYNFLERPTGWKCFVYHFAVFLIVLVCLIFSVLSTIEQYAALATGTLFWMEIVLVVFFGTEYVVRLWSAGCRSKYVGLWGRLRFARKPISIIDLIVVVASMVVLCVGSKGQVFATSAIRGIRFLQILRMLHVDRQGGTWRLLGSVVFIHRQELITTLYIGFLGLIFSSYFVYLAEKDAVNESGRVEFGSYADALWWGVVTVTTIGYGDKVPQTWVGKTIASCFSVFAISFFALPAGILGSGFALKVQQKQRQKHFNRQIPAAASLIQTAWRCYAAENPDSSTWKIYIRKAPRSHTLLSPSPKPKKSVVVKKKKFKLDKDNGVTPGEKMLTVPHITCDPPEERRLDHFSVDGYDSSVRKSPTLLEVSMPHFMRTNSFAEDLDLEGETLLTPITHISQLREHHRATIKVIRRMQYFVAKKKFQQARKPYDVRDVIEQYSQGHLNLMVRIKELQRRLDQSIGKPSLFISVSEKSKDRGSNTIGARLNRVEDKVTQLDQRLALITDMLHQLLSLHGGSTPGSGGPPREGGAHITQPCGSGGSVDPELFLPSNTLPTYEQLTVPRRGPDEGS

T2 sequence (P34972 whole entry): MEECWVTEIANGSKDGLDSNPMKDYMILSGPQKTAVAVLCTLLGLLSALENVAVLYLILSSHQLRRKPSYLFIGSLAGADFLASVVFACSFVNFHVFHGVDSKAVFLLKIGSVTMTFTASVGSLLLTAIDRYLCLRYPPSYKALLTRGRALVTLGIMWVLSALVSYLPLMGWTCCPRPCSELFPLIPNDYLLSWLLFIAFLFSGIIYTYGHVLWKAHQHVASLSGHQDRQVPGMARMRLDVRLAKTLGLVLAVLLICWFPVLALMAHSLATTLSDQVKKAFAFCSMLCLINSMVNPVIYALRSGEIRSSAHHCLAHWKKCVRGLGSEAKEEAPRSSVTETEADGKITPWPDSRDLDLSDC
Sequence of H4R (Q9H3N8 whole entry): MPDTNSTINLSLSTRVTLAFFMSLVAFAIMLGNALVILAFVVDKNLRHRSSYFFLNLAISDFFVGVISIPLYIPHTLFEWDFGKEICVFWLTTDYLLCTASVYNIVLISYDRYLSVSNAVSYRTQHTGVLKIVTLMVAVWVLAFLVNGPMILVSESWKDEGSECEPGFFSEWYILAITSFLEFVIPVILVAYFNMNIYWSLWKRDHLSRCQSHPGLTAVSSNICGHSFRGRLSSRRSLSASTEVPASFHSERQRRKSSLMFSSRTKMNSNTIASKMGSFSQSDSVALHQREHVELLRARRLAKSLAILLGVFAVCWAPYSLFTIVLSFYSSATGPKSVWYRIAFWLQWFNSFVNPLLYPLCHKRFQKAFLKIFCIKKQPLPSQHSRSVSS

**Q.** `CCCCCCCC/C=C\CCCCCCCC(=O)NCCc1c[nH]c2ccc(O)cc12` [OS, oleoyl serotonin] was tested. Which “Effect on IK,basal” value [1] did it give?
**A.** Its value is “did not significantly change IK,basal”.

**Q.** What about the “Effect on WIN55,212-2-induced inward K+ currents (IK,WIN+OS)” value ([2]; 100 μM OS co-applied with 0.3 μM WIN55,212-2) of the same molecule?
**A.** Its value is “inhibited”.

**Q.** What about the “Effect of OS alone on IK,basal” value ([2]; 100 μM OS, 20–30 s, in HK) of the same molecule?
**A.** The value was “did not change the response of IK,basal”.

**Q.** And the IC50 ([2]; IC50 of blocking CB2 receptor activated by WIN55,212-2, 0.03 μM WIN + OS)?
**A.** The IC50 was 14.8 µM.

**Q.** And the IC50 ([2]; IC50 of blocking CB2 receptor activated by WIN55,212-2, 0.1 μM WIN + OS)?
**A.** Its IC50 is 13.2 µM.

**Q.** What about the IC50 ([2]; IC50 of blocking CB2 receptor activated by WIN55,212-2, 0.3 μM WIN + OS) of the same molecule?
**A.** The IC50 was 12.1 µM.

**Q.** And the IC50 ([2]; IC50 of blocking CB2 receptor activated by WIN55,212-2, 1 μM WIN + OS)?
**A.** Its IC50 is 10.4 µM.

**Q.** What about the Mode of antagonism ([2]; against WIN55,212-2) of the same molecule?
**A.** The Mode of antagonism was “non-competitively blocked”.

**Q.** And the “Activity on non-injected oocytes” value [3]?
**A.** The value was “did not show activity”.

**Q.** What about the “Effect on WIN55,212-2-induced receptor-dependent inward K+ currents (IK,WIN)” value [4] of the same molecule?
**A.** Its value is “did not change the response”.

**Q.** What about the “Anxiety-like behavior (time in open and closed arms, anxiety index)” value [5] of the same molecule?
**A.** Its value is “did not exhibit significant effects”.

**Q.** What about the “Activity in selectivity screening” value [6] of the same molecule?
**A.** Its value is “did not show significant activity”.

**Q.** What about the “Activity in selectivity screening” value [7] of the same molecule?
**A.** The value was “did not show significant activity”.
